{"source": "patent US20250188057A1", "about": "“NON-AROMATIC CYCLIC-PYRIMIDINE ANALOGS AS GLUCOSYLCERAMIDE SYNTHASE INHIBITORS” (Merck Sharp & Dohme LLC, priority 2022, published 2025)", "key": {"[1]": {"biological_target": "glucosylceramide synthase (GCS) (Homo sapiens (Human), UniProt Q16739)", "sequence (Q16739 whole entry)": "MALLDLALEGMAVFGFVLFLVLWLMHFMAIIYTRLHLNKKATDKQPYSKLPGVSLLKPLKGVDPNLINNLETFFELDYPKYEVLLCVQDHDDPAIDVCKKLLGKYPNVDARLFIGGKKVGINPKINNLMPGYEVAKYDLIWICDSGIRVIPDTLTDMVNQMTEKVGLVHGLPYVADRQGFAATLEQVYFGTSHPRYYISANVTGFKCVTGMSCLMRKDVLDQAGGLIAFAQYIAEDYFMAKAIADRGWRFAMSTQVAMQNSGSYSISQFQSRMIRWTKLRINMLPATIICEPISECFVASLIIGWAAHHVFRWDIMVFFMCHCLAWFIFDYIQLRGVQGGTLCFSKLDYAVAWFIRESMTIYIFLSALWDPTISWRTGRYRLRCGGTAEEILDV", "experiment": "UDP-Glo glucosylceramide synthase biochemical assay", "details": "endogenous GCS in Golgi preparations isolated from human A375 malignant melanoma skin cells; UDP detection by luminescence", "summary_of_the_method": "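Endogenous GCS in A375 Golgi preparations (1.5 μg total protein) was preincubated with compound for 30 min at RT, then reacted with UDP-glucose and ceramide for 20 h at RT. UDP was detected by luciferase luminescence, normalized to DMSO and reference-inhibitor controls, with EC50 and % Emax from a 4PL fit.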"}, "[2]": {"test_system": "GD and PD patient-derived induced pluripotent stem cell (iPSC) neurons", "details": "Zunke, F. et al., Neuron 2018; cited from earlier work"}}}
{"smiles": "N#Cc1cnc(C2CC2)nc1NC1CCCc2sc(C3CCCC3)nc21", "note": "(stereo not drawn) [Compound 95, 4-((2-cyclopentyl-4,5,6,7-tetrahydrobenzo[d]thiazol-4-yl)amino)-2-cyclopropylpyrimidine-5-carbonitrile]", "values": [{"measurement": "IC50", "setting": "[1]", "result": 19, "unit": "nM"}]}
{"smiles": "N#Cc1cnc(C2CC2)nc1NC1CCCc2sc(C3CCC3)nc21", "note": "(stereo not drawn) [Compound 96, 4-((2-cyclobutyl-4,5,67-tetrahydrobenzo[d]thiazol-4-yl)amino)-2-cyclopropylpyrimidine-5-carbonitrile]", "values": [{"measurement": "IC50", "setting": "[1]", "result": 46, "unit": "nM"}]}
{"smiles": "N#Cc1cnc(C2CC2)nc1OC1CCc2ccc(OC(F)(F)F)cc21", "note": "(stereo not drawn) [Compound 97, 2-cyclopropyl-4-((6-(trifluoromethoxy)-2,3-dihydro-1H-inden-1-yl)oxy)pyrimidine-5-carbonitrile]", "values": [{"measurement": "IC50", "setting": "[1]", "result": 18, "unit": "nM"}]}
{"smiles": "N#Cc1cnc(C2CC2)nc1OC1CCc2ccc(C(F)(F)F)cc21", "note": "(stereo not drawn) [Compound 98, 2-cyclopropyl-4-((6-(trifluoromethyl)-2,3-dihydro-1H-inden-1-yl)oxy)pyrimidine-5-carbonitrile]", "values": [{"measurement": "IC50", "setting": "[1]", "result": 23, "unit": "nM"}]}
{"smiles": "N#Cc1cnc(C2CC2)nc1OCC1CCN(c2ccccc2)C1", "note": "(stereo not drawn) [Compound 100, 2-cyclopropyl-4-((1-phenylpyrrolidin-3-yl)methoxy)pyrimidine-5-carbonitrile]", "values": [{"measurement": "IC50", "setting": "[1]", "result": 160, "unit": "nM"}]}
{"smiles": "N#Cc1cnc(C2CC2)nc1OCC1CCC(c2ccccc2)O1", "note": "(stereo not drawn) [Compound 102, 2-cyclopropyl-4-((5-phenyltetrahydrofuran-2-yl)methoxy)pyrimidin-5-carbonitrile]", "values": [{"measurement": "IC50", "setting": "[1]", "result": 195, "unit": "nM"}]}
{"smiles": "N#Cc1cnc(C2CC2)nc1OCC12CC(COCc3ccccc3)(CO1)C2", "note": "[Compound 103, 4-((4-((benzyloxy)methyl)-2-oxabicyclo[2.1.1]hexan-1-yl)methoxy)-2-cyclopropylpyrimidine-5-carbonitrile]", "values": [{"measurement": "IC50", "setting": "[1]", "result": 2080, "unit": "nM"}]}
{"smiles": "N#Cc1cnc(C2CC2)nc1OCC1CCCN1Cc1ccc(F)cc1", "note": "(stereo not drawn) [Compound 104, 2-cyclopropyl-4-((1-(4-fluorobenzyl)pyrrolidin-2-yl)methoxy)pyrimidine-5-carbonitrile]", "values": [{"measurement": "IC50", "setting": "[1]", "result": 1870, "unit": "nM"}]}
{"smiles": "COc1ccc(N2CCC(Oc3nc(C4CC4)ncc3C#N)C2)cc1", "note": "(stereo not drawn) [Compound 105, 2-cyclopropyl-4-((1-(4-methoxyphenyl)pyrrolidin-3-yl)oxy)pyrimidine-5-carbonitrile]", "values": [{"measurement": "IC50", "setting": "[1]", "result": 321, "unit": "nM"}]}
{"smiles": "N#Cc1cnc(C2CC2)nc1OCC1CCCN1Cc1ccccc1Cl", "note": "(stereo not drawn) [Compound 106, 4-((1-(2-chlorobenzyl)pyrrolidin-2-yl)methoxy)-2-cyclopropylpyrimidine-5-carbonitrile]", "values": [{"measurement": "IC50", "setting": "[1]", "result": 1330, "unit": "nM"}]}
{"smiles": "COc1ccc(N2CCC(COc3nc(C4CC4)ncc3C#N)C2)cc1", "note": "(stereo not drawn) [Compound 107, 2-cyclopropyl-4-((1-(4-methoxyphenyl)pyrrolidin-3-yl)methoxy)pyrimidine-5-carbonitrile]", "values": [{"measurement": "IC50", "setting": "[1]", "result": 67, "unit": "nM"}]}
{"smiles": "N#Cc1cnc(C2CC2)nc1OC[C@H]1CCN(C2CCC(F)(F)CC2)C1", "note": "[Compound 108, (S)-2-cyclopropyl-4-((1-(4,4-difluorocyclohexyl)pyrrolidin-3-yl)methoxy)pyrimidine-5-carbonitrile]", "values": [{"measurement": "IC50", "setting": "[1]", "result": 3970, "unit": "nM"}]}
{"smiles": "Cc1nc2c(s1)CCCC2Nc1nc(C2CC2)nc(Cl)c1CO", "note": "(stereo not drawn) [Compound 109, (4-chloro-2-cyclopropyl-6-((2-methyl-4,5,6,7-tetrahydrobenzo[d]thiazol-4-yl)amino)pyrimidin-5-yl)methanol]", "values": [{"measurement": "IC50", "setting": "[1]", "result": 593, "unit": "nM"}]}
{"smiles": "OCc1c(Cl)nc(C2CC2)nc1N1Cc2nc(Br)sc2C1", "note": "[Compound 111, (4-(2-bromo-4,6-dihydro-5H-pyrrolo[3,4-d]thiazol-5-yl)-6-chloro-2-cyclopropylpyrimidin-5-yl)methanol]", "values": [{"measurement": "IC50", "setting": "[1]", "result": 3260, "unit": "nM"}]}
{"smiles": "OCc1c(Cl)nc(C2CC2)nc1N1Cc2nc(-c3ccccc3)oc2C1", "note": "[Compound 112, (4-chloro-2-cyclopropyl-6-(2-phenyl-4,6-dihydro-5H-pyrrolo[3,4-d]oxazol-5-yl)pyrimidin-5-yl)methanol]", "values": [{"measurement": "IC50", "setting": "[1]", "result": 2330, "unit": "nM"}]}
{"smiles": "OCc1c(Cl)nc(C2CC2)nc1N1CCC[C@@H]1c1ncc(-c2ccccc2)s1", "note": "[Compound 113, (R)-(4-chloro-2-cyclopropyl-6-(2-(5-phenylthiazol-2-yl)pyrrolidin-1-yl)pyrimidin-5-yl)methanol]", "values": [{"measurement": "IC50", "setting": "[1]", "result": 750, "unit": "nM"}]}
{"smiles": "OCc1c(Cl)nc(C2CC2)nc1N1CCc2nc(C3CC3)sc2C1", "note": "[Compound 114, (4-chloro-2-cyclopropyl-6-(2-cyclopropyl-6,7-dihydrothiazolo[5,4-c]pyridin-5(4H)-yl)pyrimidin-5-yl)methanol]", "values": [{"measurement": "IC50", "setting": "[1]", "result": 3330, "unit": "nM"}]}
{"smiles": "OCc1c(Cl)nc(C2CC2)nc1NC1CCCc2sc(C3CCCCC3)nc21", "note": "(stereo not drawn) [Compound 115, (4-chloro-6-((2-cyclohexyl-4,5,6,7-tetrahydrobenzo[d]thiazol-4-yl)amino)-2-cyclopropylpyrimidin-5-yl)methanol]", "values": [{"measurement": "IC50", "setting": "[1]", "result": 7.5, "unit": "nM"}]}
{"smiles": "CCC(C)c1nc2c(s1)CCCC2Nc1nc(C2CC2)nc(Cl)c1CO", "note": "(stereo not drawn) [Compound 116, (4-((2-(sec-butyl)-4,5,6,7-tetrahydrobenzo[d]thiazol-4-yl)amino)-6-chloro-2-cyclopropylpyrimidin-5-yl)methanol]", "values": [{"measurement": "IC50", "setting": "[1]", "result": 3910, "unit": "nM"}]}
{"smiles": "Cc1nc(N2CC(c3nc4ccccc4n3C)C2)cc(N2CC(CC(C)C)CC2=O)n1", "note": "(stereo not drawn) [Compound 117, 4-isobutyl-1-(2-methyl-6-(3-(1-methyl-1H-benzo[d]imidazol-2-yl)azetidin-1-yl)pyrimidin-4-yl)pyrrolidin-2-one]", "values": [{"measurement": "IC50", "setting": "[1]", "result": 1140, "unit": "nM"}]}
{"smiles": "Cc1nc(N2CC(c3nc4ccccc4[nH]3)C2)cc(N2CC(CC(C)C)CC2=O)n1", "note": "(stereo not drawn) [Compound 118, 1-(6-(3-(1H-benzo[d]imidazol-2-yl)azetidin-1-yl)-2-methylpyrimidin-4-yl)-4-isobutylpyrrolidin-2-one]", "values": [{"measurement": "IC50", "setting": "[1]", "result": 2870, "unit": "nM"}]}
{"smiles": "Cc1nc(N2CC(c3nc4ccccc4n3C)C2)cc(N2CC(c3ccccc3)CC2=O)n1", "note": "(stereo not drawn) [Compound 119, 1-(2-methyl-6-(3-(1-methyl-1H-benzo[d]imidazol-2-yl)azetidin-1-yl)pyrimidin-4-yl)-4-phenylpyrrolidin-2-one]", "values": [{"measurement": "IC50", "setting": "[1]", "result": 3030, "unit": "nM"}]}
{"smiles": "Cc1nc(N2CC(c3nc4ccccc4n3C)C2)cc(N2CC3(CCCC3)CC2=O)n1", "note": "[Compound 120, 2-(2-methyl-6-(3-(1-methyl-1H-benzo[d]imidazol-2-yl)azetidin-1-yl)pyrimidin-4-yl)-2-azaspiro[4.4]nonan-3-one]", "values": [{"measurement": "IC50", "setting": "[1]", "result": 4130, "unit": "nM"}]}
{"smiles": "COC(=O)c1cc(N2CC(c3nc4ccccc4n3C)C2)nc(C)n1", "note": "[Compound 121, methyl 2-methyl-6-(3-(1-methyl-1H-benzo[d]imidazol-2-yl)azetidin-1-yl)pyrimidine-4-carboxylate]", "values": [{"measurement": "IC50", "setting": "[1]", "result": 2820, "unit": "nM"}]}
{"smiles": "C=Cc1cc(N2CC(c3nc4ccccc4n3C)C2)nc(C)n1", "note": "[Compound 122, 1-methyl-2-(1-(2-methyl-6-vinylpyrimidin-4-yl)azetidin-3-yl)-1H-benzo[d]imidazole]", "values": [{"measurement": "IC50", "setting": "[1]", "result": 3430, "unit": "nM"}]}
{"smiles": "Cc1nc2c(s1)CCCC2Nc1nc(C2CC2)nc(Cl)c1C(F)F", "note": "(stereo not drawn) [Compound 123, N-(6-chloro-2-cyclopropyl-5-(difluoromethyl)pyrimidin-4-yl)-2-methyl-4,5,6,7-tetrahydrobenzo[d]thiazol-4-amine]", "values": [{"measurement": "IC50", "setting": "[1]", "result": 841, "unit": "nM"}]}
{"smiles": "Cc1nc2c(s1)CCCC2Nc1nc(C2CC2)nc(C)c1C#N", "note": "(stereo not drawn) [Compound 124, 2-cyclopropyl-4-methyl-6-((2-methyl-4,5,6,7-tetrahydrobenzo[d]thiazol-4-yl)amino)pyrimidine-5-carbonitrile]", "values": [{"measurement": "IC50", "setting": "[1]", "result": 422, "unit": "nM"}]}
{"smiles": "COc1ccc(N2CCC3(CCN(c4nc(C5CC5)ncc4CO)C3)C2)cc1", "note": "(stereo not drawn) [Compound 125, (2-cyclopropyl-4-(7-(4-methoxyphenyl)-2,7-diazaspiro[4.4]nonan-2-yl)pyrimidin-5-yl)methanol]", "values": [{"measurement": "IC50", "setting": "[1]", "result": 902, "unit": "nM"}]}
{"smiles": "Cc1nc2c(s1)C(Oc1nc(C3CC3)ncc1C#N)CCC2", "note": "(stereo not drawn) [Compound 126, 2-cyclopropyl-4-((2-methyl-4,5,6,7-tetrahydrobenzo[d]thiazol-7-yl)oxy)pyrimidine-5-carbonitrile]", "values": [{"measurement": "IC50", "setting": "[1]", "result": 971, "unit": "nM"}]}
{"smiles": "CCCCCCCC(=O)N[C@H](CN1CCCC1)[C@H](O)c1ccc2c(c1)OCCO2", "note": "[eliglustat, Eliglustat]", "values": [{"measurement": "formation of pathological α-synuclein aggregates", "setting": "[2]", "result": "reverse the formation of pathological α-synuclein aggregates"}]}
